From patent publication US8486985B2, “Selective subtype alpha 2 adrenergic agents and methods for use thereof” (Allergan, Inc., priority 2008, dated 2013) come the findings set out here.

SMILES strings stand for the structures. Read-outs that look alike come from different tables or passages of the source. Bounds are passed on as bounds.

One assay deals with T1, alpha 2B receptor (Homo sapiens, UniProt P18089).
T1 construct: expressed in transfected cells; host or cells: NIH-3T3 cells
T1 sequence (P18089 1-450): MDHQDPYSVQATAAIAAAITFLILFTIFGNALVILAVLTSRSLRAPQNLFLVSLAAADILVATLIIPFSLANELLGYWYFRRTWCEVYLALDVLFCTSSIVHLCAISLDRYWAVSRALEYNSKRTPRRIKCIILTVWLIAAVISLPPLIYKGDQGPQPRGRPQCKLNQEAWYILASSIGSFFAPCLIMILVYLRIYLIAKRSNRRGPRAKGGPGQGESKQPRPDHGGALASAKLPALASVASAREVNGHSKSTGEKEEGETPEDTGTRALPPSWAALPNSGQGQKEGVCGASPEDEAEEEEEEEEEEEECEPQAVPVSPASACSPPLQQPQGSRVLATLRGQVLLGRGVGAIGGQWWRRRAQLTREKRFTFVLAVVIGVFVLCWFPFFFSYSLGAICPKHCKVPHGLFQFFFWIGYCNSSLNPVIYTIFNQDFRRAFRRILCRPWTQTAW
Put plainly: RSAT (Receptor Selection and Amplification Technology) assay, alpha 2B. The assay is classed as cell-based. The following applies: for RSAT (rel eff) Alpha 2B: intrinsic activity: ratio of maximal effect to that of standard full agonist brimonidine. Here is the method: (§1) 76, pp. 308-311 (incorporated herein by reference) and is also described below.
(§2) The RSAT assay measures a receptor-mediated loss of contact inhibition that results in selective proliferation of receptor-containing cells in a mixed population of confluent cells. The increase in cell number is assessed with an appropriate transfected marker gene such as β-galactosidase, the activity of which can be easily measured in a 96-well format. Receptors that activate the G protein, Gq, elicit this response. Alpha 2 receptors, which normally couple to Gi, activate the RSAT response when coexpressed with a hybrid Gq protein that has a Gi receptor recognition domain, called Gq/i5.
(§3) NIH-3T3 cells are plated at a density of 2×10^6 cells in 15 cm dishes and maintained in Dulbecco's modified Eagle's medium supplemented with 10% calf serum. One day later, cells are cotransfected by calcium phosphate precipitation with mammalian expression plasmids encoding p-SV-β-galactosidase (5-10 μg), receptor (1-2 μg) and G protein (1-2 μg). 40 μg salmon sperm DNA may also be included in the transfection mixture. Fresh media is added on the following day and 1-2 days later, cells are harvested and frozen in 50 assay aliquots. Cells are thawed and 100 μl added to 100 μL aliquots of various concentrations of drugs in triplicate in 96-well dishes. Incubations continue 72-96 hr at 37° C. After washing with phosphate-buffered saline, β-galactosidase enzyme activity is determined by adding 200 μL of the chromogenic substrate (consisting of 3.5 mM o-nitrophenyl-β-D-galactopyranoside and 0.5% nonidet P-40 in phosphate buffered saline), incubating overnight at 30° C. and measuring optical density at 420 nm. The absorbance is a measure of enzyme activity, which depends on cell number and reflects a receptor-mediated cell proliferation. The efficacy or intrinsic activity is calculated as a ratio of the maximal effect of the drug to the maximal effect of a standard full agonist for each receptor subtype. Brimonidine, the chemical structure of which is shown below, is used as the standard agonist for the alpha 2B and alpha 2C receptors.

A further assay has as its target T2, alpha 2C receptor (Homo sapiens, UniProt P18825).
T2 construct: expressed in transfected cells; host or cells: NIH-3T3 cells
T2 sequence (P18825 1-462): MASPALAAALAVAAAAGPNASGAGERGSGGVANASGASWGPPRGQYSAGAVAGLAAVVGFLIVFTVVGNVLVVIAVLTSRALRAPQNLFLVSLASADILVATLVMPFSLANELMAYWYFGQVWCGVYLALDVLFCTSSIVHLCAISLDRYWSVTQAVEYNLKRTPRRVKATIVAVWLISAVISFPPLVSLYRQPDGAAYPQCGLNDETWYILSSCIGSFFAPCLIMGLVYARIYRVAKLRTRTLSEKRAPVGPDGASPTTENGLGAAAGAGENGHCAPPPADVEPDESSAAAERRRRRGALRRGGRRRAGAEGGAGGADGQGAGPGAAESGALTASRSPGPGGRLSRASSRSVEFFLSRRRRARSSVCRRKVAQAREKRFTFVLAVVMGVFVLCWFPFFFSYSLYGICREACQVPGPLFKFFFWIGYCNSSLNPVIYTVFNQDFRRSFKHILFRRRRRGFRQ
As to the kind of experiment: RSAT (Receptor Selection and Amplification Technology) assay, alpha 2C. The assay is classed as cell-based. The following applies: for RSAT (rel eff) Alpha 2C: intrinsic activity: ratio of maximal effect to that of standard full agonist brimonidine. Here is the method: as §1, §2, §3

With `C[C@H](NC1=NCCN1)c1cccc(Cl)c1Cl` [Compound 2, (+)-(S)—N-[1-(2,3-dichloro-phenyl)-ethyl]-4,5-dihydro-1H-imidazol-2-amine], at alpha 2B receptor, the EC50 (usually the concentration at which the effect is half-maximal) worked out at 19 nM and the “RSAT (rel eff) Alpha 2B” value is given as 0.63. For the same compound, on alpha 2C receptor, the EC50 is 63 nM and the “RSAT (rel eff) Alpha 2C” value is given as 0.33.

Take `C[C@@H](NC1=NCCN1)c1cccc(Cl)c1Cl` [Compound 1, N-[1-(2,3-dichloro-phenyl)-ethyl]-4,5-dihydro-1H-imidazol-2-amine]: at alpha 2B receptor, the concentration giving a half-maximal response (EC50) came to 31 nM and the “RSAT (rel eff) Alpha 2B” value turned out to be 0.68. Also, on alpha 2C receptor, the EC50 is 41 nM and the “RSAT (rel eff) Alpha 2C” value amounted to 0.35.

Consider `CCC(NC1=NCCN1)c1cccc(Cl)c1Cl` (stereo not drawn) [Compound 3, N-[1-(2,3-dichloro-phenyl)-propyl]-4,5-dihydro-1H-imidazol-2-amine], for which, at alpha 2B receptor, the concentration giving a half-maximal response (EC50) came out at 38 nM and the “RSAT (rel eff) Alpha 2B” value is listed as 0.82. On alpha 2C receptor, the EC50 was 46 nM and the “RSAT (rel eff) Alpha 2C” value is 0.30.

`Clc1cccc(C(CCc2ccccc2)NC2=NCCN2)c1Cl` (stereo not drawn) [Compound 4, N-[1-(2,3-dichloro-phenyl)-3-phenyl-propyl]-4,5-dihydro-1H-imidazol-2-amine]: the EC50 was 11 nM at alpha 2B receptor (NIH-3T3 cells cotransfected with receptor, Gq/i5 and beta-galactosidase, read-out: RSAT EC50 (nM) Alpha 2B); above 10000 nM on alpha 2C receptor (NIH-3T3 cells cotransfected with receptor, Gq/i5 and beta-galactosidase, nd = not determinable (>10,000), read-out: RSAT EC50 (nM) Alpha 2C). Besides, on alpha 2B receptor, the “RSAT (rel eff) Alpha 2B” value amounted to 0.77.
